Laboratory results published in patent US12673039B2, “Methods of inducing autophagy using coumarin derivatives and related compounds” (Buck Institute for Research on Aging, priority 2019, dated 2026).

How the values were obtained:
[1] = test system: TFEB; experiment: qPCR of TFEB and downstream target genes in differentiated SY5Y cells; assay type: cell-based, human; details: qPCR (FIG. 6)
Excerpt: Relative expression of TFEB and downstream target genes as assessed by qPCR from mRNA extracted from differentiated SY5Y cells treated with C1 (AIC106) versus vehicle-treated controls. Values represent fold induction versus controls, *p<0.01. Run in triplicate in 3 independent experiments.
In vitro drug screening studies. […] We utilized for these studies a 3000 compound natural product derivative library (Timtec, Newark, DE) in […] transfected with a sensitive TFEB promotor-Gaussian luciferase construct. […] C1 is a coumarin-related compound, part of a family of natural benzopyrones found in many edible plants.

[2] = test system: TSC1+/− human neuronal SH-SY5Y cells; experiment: TAU, phosphorylated-TAU, insoluble tau and viability in TSC1 mutant SH-SY5Y neuronal cells; assay type: cell-based
Description: FIG. 8 A) Representative Western blot analysis of detergent-insoluble tau levels in control versus three independent TSC1-mutant SY5Y cell lines (A1, A3, A3A9) treated with 10 μM C1 (AIC106) versus vehicle. FIG. 8B) Quantitation of insoluble tau levels in control (Emty) versus mutant TSC1 lines treated with C1 (AIC106) versus vehicle (−). Values represent fold change versus vehicle-treated controls, *p<0.01.
FIG. 23, panels A-H: FXR modulation enhances HLH-30 expression in human neuronal SH-SY5Y cells. Panel A) Effects of AIC106 on human FXR activity was determined in a mammalian one-hybrid based kit assay by quantifying changes in the luciferase activity of FXR ligand (GW4064, GW) induced treatment. [N=3 independent experiments (mean±SD). ****p<0.0001, by one-way ANOVA with Tukey's multiple comparisons test]. Panel B) Protein expression of TFEB, cathepsin-D (CAT-D) and small heterodimer partner-1 (SHP-1) was determined by immunoblot in neuronal SH-SY5Y cells post-24 hours of treatment with AIC106 and DMSO-control. Panel C) AIC106 enhances autophagic flux in neuronal SH-SY5Y cells. Autophagic flux in DMSO-control and AIC106 treated neuronal cells was determined by quantifying levels of autophagosome specific LC3-II protein both in presence and absence of autophagy inhibitor bafliomycin A1 (Baf A, 10 nM). Panel D) Relative fold change in the band intensity of LC3-II protein, normalized to loading control actin. Values are relative to DMSO-control. [N=3 independent experiments (mean±SD). *p<0.05 and ****p<0.0001, by one-way ANOVA with Tukey's multiple comparisons test]. Panel E) Effects of AIC106 treatment for 72 hours on basal TAU and phosphorylated-TAU in differentiated human neuronal SH-SHY5Y and heterozygous TSC1(+/−) mutant SH-SY5Y neuronal cells were quantitated by immunoblotting following total protein extraction. Relative fold change in the band intensity compared to SH-SY5Y control treatment for (panel F) total TAU and (panel G) phosphorylated-TAU, normalized to loading control GAPDH. [N=3 independent experiments (mean±SD). *p<0.05 and **p<0.01, by one-way ANOVA with Sidak's multiple comparisons test]. Panel H) AIC106 treatment improves viability and health of differentiated SH-SY5Y-TSC1(+/−) neuronal cells. Images were taken post-96 hours after treatment of differentiated neuronal cells with AIC106.
The rat dopaminergic cell line 1RB3AN27 (N27) was grown in RPMI 1640 medium supplemented with 10% fetal calf serum (Invitrogen), 100 U/ml penicillin, and 100 μg/ml streptomycin. SH-SY5Y TSC1+/− lines were generated as described previously (Olney et al., 2017). […]

[3] = TSC1+/− SH-SY5Y cells, 72 hours

With `O=c1oc2c3c4c(cc2c2c1CCC2)CCCN4CCC3` [C1, 2,3,6,7,10,11-Hexahydro-1H,5H-cyclopenta(3,4)(1)benzopyrano(6,7,8-ij)quinolizin-12(9H)-one] the TFEB expression [1] was “significant dose-dependent elevations in TFEB expression”, the “downstream TFEB target genes” value [1] was “up-regulation of several downstream TFEB target genes” and the TAU levels [2, 3] was “without significantly changing TAU levels”. For the same compound, the phosphorylated-TAU [2, 3] was “decrease of phosphorylated-TAU”, the insoluble tau levels ([2]; TSC1-mutant SY5Y cell lines, 10 μM C1 (FIG. 8)) was “reduce levels of insoluble tau levels” and the “viability and general health of differentiated cells” value ([2]; differentiated TSC1+/− SH-SY5Y cells, 96 hours) was “prevented loss in viability”.
